This assay has as its target T1, human liver FBPase (Homo sapiens, UniProt P09467).
T1 construct: made in house; host or cells: E. coli
T1 sequence (P09467 2-338 limits assumed): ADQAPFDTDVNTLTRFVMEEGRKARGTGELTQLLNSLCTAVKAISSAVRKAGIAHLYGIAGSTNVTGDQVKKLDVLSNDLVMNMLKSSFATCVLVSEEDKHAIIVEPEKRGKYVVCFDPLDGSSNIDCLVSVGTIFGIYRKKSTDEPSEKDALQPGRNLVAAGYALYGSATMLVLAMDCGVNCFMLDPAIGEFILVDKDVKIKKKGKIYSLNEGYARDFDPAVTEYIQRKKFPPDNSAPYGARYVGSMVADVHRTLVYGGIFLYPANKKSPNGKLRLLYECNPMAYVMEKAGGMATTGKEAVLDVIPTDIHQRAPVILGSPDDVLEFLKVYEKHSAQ
In words: FBPase assay (malachite green phosphate release). It counts as biochemical. The settings on record: recombinant human liver FBPase, 50 μM fructose-1,6-bisphosphate. In outline:
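Recombinant human liver FBPase (E. coli-expressed, heat-treated, purified) reacted with 50 μM fructose-1,6-bisphosphate in pH 7.2 HEPES, 2 mM MgCl2, 1% DMSO, 50 min at room temperature. Released phosphate quantified with malachite green/ammonium molybdate reagent at 620 nm.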
On to `Nc1cc(Br)cc(NC(=O)NS(=O)(=O)c2ccc3c(c2)CCO3)n1` [Compound 34, N-[(6-Amino-4-bromopyridin-2-yl)carbamoyl]-2,3-dihydro-1-benzofuran-5-sulfonamide], for which the IC50 is 0.481 µM.

Regarding `COCCc1sc(S(=O)(=O)NC(=O)Nc2cc(SC)cc(N)n2)cc1C` [Compound 32, N-{[6-Amino-4-(methylthio)pyridin-2-yl]carbamoyl}-5-(2-methoxyethyl)-4-methylthiophene-2-sulfonamide], the IC50 was determined as 0.433 µM.

In the case of `COc1cc(NC(N)=O)nc(NC(=O)NS(=O)(=O)c2csc(C)c2)c1` [Compound 22, N-{[6-(Carbamoylamino)-4-methoxypyridin-2-yl]carbamoyl}-5-methylthiophene-3-sulfonamide], the IC50 was 0.23 µM.

As to `CNC(=O)c1cc(N)nc(NC(=O)NS(=O)(=O)c2cc(C)c(CCOC)s2)c1` [Compound 104, 2-Amino-6-[({[5-(2-methoxyethyl)-4-methyl-2-thienyl]sulfonyl}carbamoyl)amino]-N-methylisonicotinamide], the IC50 is above 100 µM.

As for `CNC(=O)c1cc(SC)cc(NC(=O)NS(=O)(=O)c2cc(C)c(CCOC)s2)n1` [Compound 113, 6-[({[5-(2-Methoxyethyl)-4-methyl-2-thienyl]sulfonyl}carbamoyl)amino]-N-methyl-4-(methylthio)pyridine-2-carboxamide], the concentration for half-maximal inhibition (IC50) was 0.84 µM.

With `COCCOc1ccc(S(=O)(=O)NC(=O)Nc2cc(Br)cc(N)n2)cc1C` [Compound 57, N-[(6-Amino-4-bromopyridin-2-yl)carbamoyl]-4-(2-methoxyethoxy)-3-methylbenzenesulfonamide], the IC50 worked out at 1.77 µM.

Consider `CCOc1cc(N)nc(NC(=O)NS(=O)(=O)c2cc(C)c(CCOC)s2)c1` [Compound 64, N-[(6-Amino-4-ethoxypyridin-2-yl)carbamoyl]-5-(2-methoxyethyl)-4-methylthiophene-2-sulfonamide], for which the IC50 came to 2.19 µM.

With `COCCc1sc(S(=O)(=O)NC(=O)Nc2cc(SC)cc(NC(N)=O)n2)cc1C` [Compound 17, N-{[6-(Carbamoylamino)-4-(methylthio)pyridin-2-yl]carbamoyl}-5-(2-methoxyethyl)-4-methylthiophene-2-sulfonamide], the IC50 turned out to be 0.185 µM.

Turning to `COCCc1sc(S(=O)(=O)NC(=O)Nc2cc(C(F)(F)F)cc(C(=O)OC)n2)cc1C` [Compound 91, Methyl-6-[({[5-(2-methoxyethyl)-4-methyl-2-thienyl]sulfonyl}carbamoyl)amino]-4-(trifluoromethyl)pyridine-2-carboxylate], the IC50 turned out to be 2.16 µM.

As to `COCCc1sc(S(=O)(=O)NC(=O)Nc2cc(SC)cc(C(=O)O)n2)cc1C` [Compound 88, Sodium-6-[({[5-(2-methoxyethyl)-4-methyl-2-thienyl]sulfonyl}carbamoyl)amino]-4-(methylthio)pyridine-2-carboxylate], the half-maximal inhibitory concentration (IC50) stood at 55.4 µM.

The record behind these values is patent publication US8163778B2 (Hoffmann-LA Roche Inc., priority 2007, dated 2012).
